Like-named read-outs stand apart in the source and are kept apart here.
Test system: 280 human cancer cell lines
Assay: OncoPanel cell proliferation assay (10-day)
Format: cell-based
Details: Homo sapiens; for GI50: read-out: Cell Count GI50; for IC50: read-out: Cell Count IC50; for EC50: read-out: Cell Count EC50
[1] = C-4-II, C-4 II, Female GU - Cervix
[2] = C-33-A, C-33A, Female GU - Cervix
[3] = CAL-62, CAL-62, Endocrine - Thyroid
[4] = CCF-STTG1, CCF-STTG1, CNS - Glioma
[5] = CGTH-W-1, CGTH-W-1, Endocrine - Thyroid
[6] = CHP-212, CHP-212, CNS - Neuroblastoma
[7] = COLO-320-HSR, Colo 320 HSR, Colon
[8] = COLO-829, COLO 829, Skin (Melanoma)
[9] = COR-L105, COR-L105, Lung - NSCLC
[10] = Ca-Ski, Ca Ski, Female GU - Ovary

CC(C)=CCC[C@@H]1C(O)Oc2c(C)cc(O)c3c2[C@H]1CC[C@H]3C (some centres unmarked) [Compound 2, 5,18-epoxyserrulat-14-en-8,18-diol]
GI50 (BT-474, BT474, Breast): > 30 µM
IC50 (BT-474, BT474, Breast): > 30 µM
EC50 (BT-549, BT-549, Breast): 25.8 µM
GI50 (BT-549, BT-549, Breast): 25.8 µM
IC50 (BT-549, BT-549, Breast): 25.9 µM
EC50 (BV-173, BV-173, Leukemia): 9.33 µM
GI50 (BV-173, BV-173, Leukemia): 9.33 µM
IC50 (BV-173, BV-173, Leukemia): 9.33 µM
EC50 (BXPC-3, BxPC-3, Pancreas): 13 µM
GI50 (BXPC-3, BxPC-3, Pancreas): > 30 µM
IC50 (BXPC-3, BxPC-3, Pancreas): > 30 µM
EC50 (BeWo, Placenta): 7.68 µM
GI50 (BeWo, Placenta): > 30 µM
IC50 (BeWo, Placenta): > 30 µM
EC50 (C32, Skin (Melanoma)): 19.2 µM
GI50 (C32, Skin (Melanoma)): 15.5 µM
IC50 (C32, Skin (Melanoma)): 19.2 µM
EC50 [1]: 8.94 µM
GI50 [1]: 9 µM
IC50 [1]: 9.03 µM
EC50 [2]: 12 µM
GI50 [2]: 11.9 µM
IC50 [2]: 12 µM
EC50 (CA46, CA46, Lymphoma): 3.83 µM
GI50 (CA46, CA46, Lymphoma): 3.82 µM
IC50 (CA46, CA46, Lymphoma): 3.83 µM
EC50 (CAKI-1, Caki-1, Kidney): 0.17 µM
GI50 (CAKI-1, Caki-1, Kidney): > 30 µM
IC50 (CAKI-1, Caki-1, Kidney): > 30 µM
EC50 (CAKI-2, Caki-2, Kidney): 28.8 µM
GI50 (CAKI-2, Caki-2, Kidney): 28.9 µM
IC50 (CAKI-2, Caki-2, Kidney): 29.1 µM
EC50 (CAL-27, Cal 27, Head and Neck): 7.64 µM
GI50 (CAL-27, Cal 27, Head and Neck): 7.62 µM
IC50 (CAL-27, Cal 27, Head and Neck): 7.64 µM
EC50 [3]: 5.6 µM
GI50 [3]: 5.78 µM
IC50 [3]: 5.79 µM
EC50 (CAMA-1, CAMA-1, Breast): > 30 µM
GI50 (CAMA-1, CAMA-1, Breast): > 30 µM
IC50 (CAMA-1, CAMA-1, Breast): > 30 µM
EC50 (CAPAN-1, Capan-1, Pancreas): > 30 µM
GI50 (CAPAN-1, Capan-1, Pancreas): > 30 µM
IC50 (CAPAN-1, Capan-1, Pancreas): > 30 µM
EC50 [4]: > 30 µM
GI50 [4]: > 30 µM
IC50 [4]: > 30 µM
EC50 (CCRF-CEM, CCRFCEM, Leukemia): 11.5 µM
GI50 (CCRF-CEM, CCRFCEM, Leukemia): 11.4 µM
IC50 (CCRF-CEM, CCRFCEM, Leukemia): 11.5 µM
EC50 (CEM/C1, CEM-C1, Leukemia): 3.26 µM
GI50 (CEM/C1, CEM-C1, Leukemia): 3.26 µM
IC50 (CEM/C1, CEM-C1, Leukemia): 3.26 µM
EC50 (CFPAC-1, CFPAC-1, Pancreas): 12.3 µM
GI50 (CFPAC-1, CFPAC-1, Pancreas): 13.4 µM
IC50 (CFPAC-1, CFPAC-1, Pancreas): 13.5 µM
EC50 [5]: 5.83 µM
GI50 [5]: 5.81 µM
IC50 [5]: 5.83 µM
EC50 (CHL-1, CHL-1, Skin (Melanoma)): 14.3 µM
GI50 (CHL-1, CHL-1, Skin (Melanoma)): 14.2 µM
IC50 (CHL-1, CHL-1, Skin (Melanoma)): 14.3 µM
EC50 [6]: 11.4 µM
GI50 [6]: 11.1 µM
IC50 [6]: 11.4 µM
EC50 (CML-T1, CML-T1, Leukemia): 3.69 µM
GI50 (CML-T1, CML-T1, Leukemia): 3.68 µM
IC50 (CML-T1, CML-T1, Leukemia): 3.69 µM
EC50 (COLO 201, Colo 201, Colon): 8.51 µM
GI50 (COLO 201, Colo 201, Colon): 8.45 µM
IC50 (COLO 201, Colo 201, Colon): 8.51 µM
EC50 (COLO 205, Colo 205, Colon): 10.7 µM
GI50 (COLO 205, Colo 205, Colon): 10.7 µM
IC50 (COLO 205, Colo 205, Colon): 10.7 µM
EC50 (COLO 320DM, Colon): 7.72 µM
GI50 (COLO 320DM, Colon): 7.67 µM
IC50 (COLO 320DM, Colon): 7.72 µM
EC50 [7]: 11.6 µM
GI50 [7]: 11.6 µM
IC50 [7]: 11.6 µM
EC50 [8]: 5.35 µM
GI50 [8]: 4.93 µM
IC50 [8]: 5.35 µM
EC50 (COR-L23, COR-L23, Lung - NSCLC): 23.8 µM
GI50 (COR-L23, COR-L23, Lung - NSCLC): 23.6 µM
IC50 (COR-L23, COR-L23, Lung - NSCLC): 23.8 µM
EC50 [9]: 4.76 µM
GI50 [9]: 4.61 µM
IC50 [9]: 4.76 µM
EC50 (CRO-AP2, CRO-AP2, Lymphoma): 6.38 µM
GI50 (CRO-AP2, CRO-AP2, Lymphoma): 6.36 µM
IC50 (CRO-AP2, CRO-AP2, Lymphoma): 6.38 µM
EC50 [10]: > 30 µM
GI50 [10]: > 30 µM
IC50 [10]: > 30 µM
EC50 (Calu-1, Calu1, Lung - NSCLC): 13.9 µM
GI50 (Calu-1, Calu1, Lung - NSCLC): 13.8 µM
IC50 (Calu-1, Calu1, Lung - NSCLC): 13.9 µM
EC50 (Calu-6, Calu6, Lung - NSCLC): 14.5 µM
GI50 (Calu-6, Calu6, Lung - NSCLC): 15.7 µM
IC50 (Calu-6, Calu6, Lung - NSCLC): 16.6 µM

From US11331299B2, “Medicinal use of serrulatane diterpenes” (The University of Sydney, priority 2016, dated 2022)
